In patent US20240076347A1, “METHODS FOR PREVENTING FUNGAL INFECTIONS” (Cidara Therapeutics, Inc., priority 2016, published 2024):
Numbered stars: 1 amine (or outer) side, 2 acyl side, 3 side chain; on linkers, the order of the positions; unused ones are H or OH. Bridge positions count the residues as written; N and C are the ends. Square brackets hold non-standard residues; d marks the D form. Peptide text beside a SMILES is read from it. * marks the point of attachment. ξ: configuration not given here. Orn(4R-OH,5R-OCH2CH2NMe3+) = C[N+](C)(C)CCO[C@@H](N[*:3])[C@H](O)C[C@H](N[*:1])C(=O)[*:2]; hTyr(3S-OH,4S-OH,3'-OSO3H) = N[C@H](C(=O)O)[C@H](O)[C@@H](O)c1ccc(O)c(OS(=O)(=O)O)c1; pTerphenylCO(4''-OnC5H11) = CCCCCOc1ccc(-c2ccc(-c3ccc(C(=O)*)cc3)cc2)cc1; Orn(4R-OH,5R-OH) = O=C([C@H](C[C@@H](O)[C@@H](O)N[*:3])N[*:1])[*:2]; hTyr(3S-OH,4S-OH) = N[C@H](C(=O)O)[C@H](O)[C@@H](O)c1ccc(O)cc1; Pro(3S-OH,4S-Me) = C[C@H]1CN[C@H](C(=O)O)[C@H]1O; X2 = CCCCCOc1ccc(-c2cc(-c3ccc(C(=O)*)cc3)no2)cc1; Gln(3R-OH) = NC(=O)C[C@@H](O)[C@H](N)C(=O)O; X1 = C[C@H]1CN([*:1])C(C(=O)[*:2])C1O; Hyp = O=C(O)[C@@H]1C[C@@H](O)CN1; ξT = CC(O)C(N)C(=O)O

How the values were obtained:
A. fumigatus AF293 = assay: Pulmonary aspergillosis in neutropenic ICR mice (Examples 14, 15), prophylaxis, survival; assay type: in vivo, Aspergillus fumigatus
Experimental: Pulmonary aspergillosis: ICR mice (10/grp) were made neutropenic by cyclophosphamide on Day −4 (150 mg/kg), and CPM/cortisone on Day −1 (150/175 mg/kg). Intranasal infection with A. fumigatus AF293 (10^5 CFU/mouse) on Day 0. Prophylaxis CD101 as a single dose (IP; 5, 10, 20 mg/kg) or posaconazole (PO; 2 and 10 mg/kg) 1 day prior to infection. Survival monitored for 10 days.
Pulmonary aspergillosis: ICR mice (10/grp) were made neutropenic by cyclophosphamide on Day −4 (150 mg/kg), and cyclophosphamide/cortisone was given on Day −1 (150/175 mg/kg). Intranasal challenge with A. fumigatus AF293 (10^5 CFU/mouse) was initiated on Day 0 and prophylaxis with CD101 as a single dose (IP; 5, 10, 20 mg/kg) or posaconazole (PO; 2 and 10 mg/kg) was started 1 day prior to infection. Survival was monitored for 10 days.

[1] = tested on: Aspergillus fumigatus (strain AF293); assay: Murine model of pulmonary aspergillosis (Example 9), survival and lung burden; assay type: in vivo; conditions: for Group Geometric mean / Log10 Group Geometric mean / Log10 reduction from vehicle control: terminal lung burden
Experimental: Animal Strain and Housing. Mice used in these studies were supplied by Charles River (Margate UK) and were specific pathogen free. The strain of mice used was ICR (also known as CD1 Mice) which is a well characterized outbred murine strain. Male mice were 11-15 g on receipt at our facility and allowed to acclimatize for at least seven days.
Immunosuppression. Mice were immunosuppressed on Day −4 with 150 mg/kg cyclophosphamide IP, and on Day −1 with 150 mg/kg cyclophosphamide IP and 175 mg/kg cortisone acetate SC. To prevent bacterial infection due to the immunosuppression mice were given 50 mg/kg/day ceftazidime.
Preparation of Organism and Infection. A. fumigatus strain AF293 inoculum was prepared from spore cultures grown on Sabouraud Dextrose agar (SAB) containing 50 μg/mL chloramphenicol (SABC) in vented tissue culture flasks. Following incubation for 7-10 days at 30° C., spore cultures were washed in sterile phosphate buffered saline (PBS) containing 0.05% Tween 80. Spore count was determined using a haemocytometer and spores were diluted in PBS to ˜6.9×10^6 CFU/mL. Inoculum concentration was confirmed by quantitative culture onto SABC agar. Neutropenic mice lungs were infected with 0.04 mL (0.02 mL/nares) of ˜6.9×10^6 CFU/mL (˜2.8×10^5 cfu/mouse) of A. fumigatus strain AF293 by intranasal (IN) instillation under temporary 2.5% isoflurane induced anesthesia.
Preparation of Test Articles. Micafungin was provided as a 50 mg vial (Lot 02323002, expiry 08/2017) and was prepared as per manufacturer instructions by adding 5 mL saline for injection (SFI) directly into the vial to make a 10 mg/mL stock solution. This solution was then diluted further in SFI to a working concentration of 0.2 mg/mL. The compound was administered IP at 10 mL/kg to achieve a 2 mg/kg dose. It was prepared fresh once and stored at 4° C. between doses.
Test article CD101 stock was prepared at 2 mg/mL in 10% DMSO/1% Tween 20 diluent. A clear non particulate solution was obtained following gentle mixing. The stock was kept at 4° C. until required. Study doses of 5 mg/kg (0.5 mg/mL) and 10 mg/kg (1 mg/mL) were prepared from the 2 mg/mL stock as required by diluting in 10% DMSO/1% Tween 20 diluent. The 2 mg/mL stock was used undiluted for the 20 mg/kg study dose. All doses were administered IP at 10 mL/kg.
Treatment. For this study, treatments were initiated on day five pre-infection according to treatment groups outlined in Table 15. A total of 78 mice (six mice per treatment group) were used in the study.
Endpoints. The primary endpoint for this study was survival within agreed ethical limits (>20% weight loss, severe hypothermia <34° C., inability to reach food or drink, severe hunching). Mice were monitored by daily weight measurements with observations as frequently as clinical condition required. Mice presenting with severe clinical deterioration were humanely euthanized using an overdose of pentobarbitone administered by IP injection following clinical assessment and the time of death was recorded. Animal carcasses were stored at −20° C. for assessment of burden. Ten days post infection all surviving animals were weighed and had their clinical condition assessed prior to being euthanized. Final survival numbers were recorded and analyzed as described below and carcasses frozen at −20° C. prior to further processing.
A secondary endpoint for the study was terminal lung tissue burden. Immediately following confirmation of death, carcasses were frozen at −20° C. prior to tissue dissection and processing. The frozen carcasses were thawed at room temperature and the lungs removed and placed into pre-weighed bead-beating tubes containing 2 mL of PBS and subjected to mechanical disruption. Organ homogenates were diluted further in PBS and quantitatively cultured for A. fumigatus onto SABC and incubated at 30° C. for 24-48 hours. […]

[2] = 2 mg/kg IP Day 0 (1 h post infection)
[3] = 5 mg/kg IP Day 0 (1 h post infection)

With `CCCCCOc1ccc(-c2cc(-c3ccc(C(=O)N[C@H]4C[C@@H](O)[C@@H](O)NC(=O)[C@@H]5[C@@H](O)[C@@H](C)CN5C(=O)[C@H]([C@H](O)CC(N)=O)NC(=O)[C@H]([C@H](O)[C@@H](O)c5ccc(O)c(OS(=O)(=O)O)c5)NC(=O)[C@@H]5C[C@@H](O)CN5C(=O)[C@H]([C@@H](C)O)NC4=O)cc3)no2)cc1` [Micafungin, micafungin, reference compound] (X2-[Orn(4R-OH,5R-OH)]T[Hyp][hTyr(3S-OH,4S-OH,3'-OSO3H)][Gln(3R-OH)][Pro(3S-OH,4S-Me)]; lactam 1-C) the survival rate (A. fumigatus AF293; 5 mg/kg (human-equivalent 100 mg)) was “no survivors”, the “Mean Survival” value [1, 2] was 75.3 h and the “Median Survival” value [1, 2] was 73.3 h. The “Mean Survival” value ([1]; 2 mg/kg IP Day −1) was 64.7 h, the “Median Survival” value ([1]; 2 mg/kg IP Day −1) was 64.7 h and the “Group Geometric mean” value ([1]; 2 mg/kg IP Day 0) was 1.08 × 10^4 CFU/g. For the same molecule, the “Log10 Group Geometric mean” value ([1]; 2 mg/kg IP Day 0) was 4.03 CFU/g, the “Log10 reduction from vehicle control” value ([1]; 2 mg/kg IP Day 0) was −0.26 CFU/g and the “Group Geometric mean” value ([1]; 2 mg/kg IP Day −1) was 4.34 × 10^4 CFU/g. For the same molecule, the “Log10 Group Geometric mean” value ([1]; 2 mg/kg IP Day −1) was 4.64 CFU/g and the “Log10 reduction from vehicle control” value ([1]; 2 mg/kg IP Day −1) was −0.86 CFU/g.

For `CCCCCOc1ccc(-c2ccc(-c3ccc(C(=O)N[C@H]4C[C@@H](O)[C@@H](OCC[N+](C)(C)C)NC(=O)C5C(O)[C@@H](C)CN5C(=O)[C@H]([C@@H](C)O)NC(=O)[C@H]([C@H](O)[C@@H](O)c5ccc(O)cc5)NC(=O)[C@@H]5C[C@@H](O)CN5C(=O)C(C(C)O)NC4=O)cc3)cc2)cc1` (stereo partly drawn) [CD101] ({pTerphenylCO(4''-OnC5H11)}-[Orn(4R-OH,5R-OCH2CH2NMe3+)][ξT][Hyp][hTyr(3S-OH,4S-OH)]T[X1]; lactam 1-C), the survival (A. fumigatus AF293; 20 mg/kg IP one day prior to infection (human 400 mg AUC equivalent)) was “increase in survival relative to control”, the survival rate (A. fumigatus AF293; 20 mg/kg IP one day prior to infection, 10 days) was 30% and the survival rate (A. fumigatus AF293; single dose IP (5, 10, 20 mg/kg) one day prior to infection) was “dose-dependent increase in survival rate”. For the same molecule, the “Mean Survival” value [1, 3] was 67.8 h, the “Median Survival” value [1, 3] was 64.6 h and the “Mean Survival” value ([1]; 5 mg/kg IP Day −1) was 72.1 h. For the same molecule, the “Median Survival” value ([1]; 5 mg/kg IP Day −1) was 67.6 h, the “Mean Survival” value ([1]; 5 mg/kg IP Day −3) was 70.0 h and the “Median Survival” value ([1]; 5 mg/kg IP Day −3) was 67.7 h. For the same molecule, the “Mean Survival” value ([1]; 5 mg/kg IP Day −5) was 65.3 h, the “Median Survival” value ([1]; 5 mg/kg IP Day −5) was 65.3 h and the “Mean Survival” value ([1]; 10 mg/kg IP Day −1) was 121.8 h. The “Median Survival” value ([1]; 10 mg/kg IP Day −1) was 81.0 h, the “Mean Survival” value ([1]; 10 mg/kg IP Day −3) was 76.9 h and the “Median Survival” value ([1]; 10 mg/kg IP Day −3) was 73.4 h. The “Mean Survival” value ([1]; 10 mg/kg IP Day −5) was 67.2 h, the “Median Survival” value ([1]; 10 mg/kg IP Day −5) was 65.7 h and the “survival compared to micafungin one day before infection” value ([1]; 10 mg/kg and 20 mg/kg IP one day before infection) was “statistically greater survival”. For the same molecule, the “Mean Survival” value ([1]; 20 mg/kg IP Day −1) was 155.6 h, the “Median Survival” value ([1]; 20 mg/kg IP Day −1) was 72.3 h and the “Mean Survival” value ([1]; 20 mg/kg IP Day −3) was 91.9 h. For the same molecule, the “Median Survival” value ([1]; 20 mg/kg IP Day −3) was 69.8 h, the “Mean Survival” value ([1]; 20 mg/kg IP Day −5) was 75.5 h and the “Median Survival” value ([1]; 20 mg/kg IP Day −5) was 69.8 h. For the same molecule, the “Group Geometric mean” value ([1]; 5 mg/kg IP Day 0) was 5.65 × 10^4 CFU/g, the “Log10 Group Geometric mean” value ([1]; 5 mg/kg IP Day 0) was 4.75 CFU/g and the “Log10 reduction from vehicle control” value ([1]; 5 mg/kg IP Day 0) was −0.98 CFU/g. For the same molecule, the “Group Geometric mean” value ([1]; 5 mg/kg IP Day −1) was 3.75 × 10^4 CFU/g, the “Log10 Group Geometric mean” value ([1]; 5 mg/kg IP Day −1) was 4.57 CFU/g and the “Log10 reduction from vehicle control” value ([1]; 5 mg/kg IP Day −1) was −0.80 CFU/g. The “Group Geometric mean” value ([1]; 5 mg/kg IP Day −3) was 5.71 × 10^4 CFU/g, the “Log10 Group Geometric mean” value ([1]; 5 mg/kg IP Day −3) was 4.76 CFU/g and the “Log10 reduction from vehicle control” value ([1]; 5 mg/kg IP Day −3) was −0.98 CFU/g. The “Group Geometric mean” value ([1]; 5 mg/kg IP Day −5) was 6.36 × 10^4 CFU/g, the “Log10 Group Geometric mean” value ([1]; 5 mg/kg IP Day −5) was 4.80 CFU/g and the “Log10 reduction from vehicle control” value ([1]; 5 mg/kg IP Day −5) was −1.03 CFU/g. For the same molecule, the “Group Geometric mean” value ([1]; 10 mg/kg IP Day −1) was 5.17 × 10^3 CFU/g, the “Log10 Group Geometric mean” value ([1]; 10 mg/kg IP Day −1) was 3.71 CFU/g and the “Log10 reduction from vehicle control” value ([1]; 10 mg/kg IP Day −1) was 0.06 CFU/g. The “Group Geometric mean” value ([1]; 10 mg/kg IP Day −3) was 7.34 × 10^3 CFU/g, the “Log10 Group Geometric mean” value ([1]; 10 mg/kg IP Day −3) was 3.87 CFU/g and the “Log10 reduction from vehicle control” value ([1]; 10 mg/kg IP Day −3) was −0.09 CFU/g. For the same molecule, the “Group Geometric mean” value ([1]; 10 mg/kg IP Day −5) was 3.40 × 10^4 CFU/g, the “Log10 Group Geometric mean” value ([1]; 10 mg/kg IP Day −5) was 4.53 CFU/g and the “Log10 reduction from vehicle control” value ([1]; 10 mg/kg IP Day −5) was −0.76 CFU/g. The “Group Geometric mean” value ([1]; 20 mg/kg IP Day −1) was 1.12 × 10^4 CFU/g, the “Log10 Group Geometric mean” value ([1]; 20 mg/kg IP Day −1) was 4.05 CFU/g and the “Log10 reduction from vehicle control” value ([1]; 20 mg/kg IP Day −1) was −0.28 CFU/g. For the same molecule, the “Group Geometric mean” value ([1]; 20 mg/kg IP Day −3) was 4.92 × 10^4 CFU/g, the “Log10 Group Geometric mean” value ([1]; 20 mg/kg IP Day −3) was 4.69 CFU/g and the “Log10 reduction from vehicle control” value ([1]; 20 mg/kg IP Day −3) was −0.92 CFU/g. The “Group Geometric mean” value ([1]; 20 mg/kg IP Day −5) was 8.35 × 10^3 CFU/g, the “Log10 Group Geometric mean” value ([1]; 20 mg/kg IP Day −5) was 3.92 CFU/g and the “Log10 reduction from vehicle control” value ([1]; 20 mg/kg IP Day −5) was −0.15 CFU/g.
